In patent US4277474A, “Treatment of allergic symptoms with propanone derivatives” (Nippon Zoki Pharmaceutical Co., Ltd., priority 1978, dated 1981):
Counter-ions that a name gives are not always drawn.

Experiments:
[1] = test system: Hartley-strain male guinea pig; assay: Experimental atopic asthma in passively sensitized guinea pigs; type: in vivo; settings: 50 mg/kg peroral
Protocol: [Levine, B. B. et al., J. Immunol., 106, 29(1971)] was injected at a dosage of 0.25 ml/guinea pig into the hearts of groups of Hartley-strain male guinea pig (a group consisting of four), each weighing 250-300 g, to make them passively sensitive. […] The rate of breathing and the ratio of expiration time to inspiration time were calculated from the velocity of breathing. As an antigen to induce the reaction 200 μg/kg of benzylpenicilloyl bovine serum albumin [(BPO)23 -BSA] obtained by the method of Levine et al. [Levine et al.; J. Clin. Invest., 47, 556 (1968)] was injected through a cannula into the jugular vein.

[2] = test system: homo PCA reaction; assay: Inhibitory effect on homo PCA reaction in rats; type: in vivo
[3] = test system: Peritoneal cavity cells; assay: Inhibitory effect on histamine release from sensitized peritoneal cavity cells; type: cell-based, rat (Wistar-strain); set-up: Released histamine, fluorescence intensity / Residual histamine, fluorescence intensity / Total histamine, fluorescence intensity: unit not given here; settings: for Histamine release rate / Net release rate / inhibition at 10 µM / Released histamine, fluorescence intensity / Residual histamine, fluorescence intensity / Total histamine, fluorescence intensity: 0.01 mM; for Net release rate: release not caused by antigen-antibody reaction deducted
Protocol: The inhibitory effect on histamine release of the compounds according to the present invention was investigated as follows. […] These cells were suspended in a phosphoric acid buffer solution (containing 0.1% of gelatin) and each 0.5 ml portion of this suspension was taken in a polyethylene tube. 1 ml each of solutions of various concentrations of test compound and 0.5 ml of 200 μg/ml of ovalbumin solution were added therein. They were incubated for 20 minutes at 37° C. to measure the histamine release rate. The amount of histamine was measured by a modified Shore method using fluorescence.

[4] = test system: SRS-A; assay: Anti-SRS-A effect on guinea pig's ileum (Magnus method)
Protocol: The anti-SRS-A effect of the compounds according to the present invention on guinea pig's ileum was measured by Magnus method. […] One minute thereafter, the ileum contraction inhibiting rate (%) was measured with use of 1 ml of 80% ethanol solution of SRS-A (150 mg/ml).

[5] = Acute toxicity in mice (LD50, Litchfield-Wilcoxon); settings: mouse, in vivo, ICR male mice
Protocol: Acute toxicity tests were carried out by intraperitoneal or peroral administration of the compound according to the present invention to groups of 10 ICR-strain male mice (weighing 20 g on the average), and each LD50 value was determined by Litchfield-Wilcoxon Method.

Cc1ccc(C(=O)C(C)CN2CCCCC2)cc1 (centres unmarked) [2,4'-dimethyl-3-piperidinopropiophenone, reference compound]
inhibition on the variation from the normal values exhibited in the control group (in words) [1]: less inhibitory effect than the compounds according to the present invention | Expiration/inspiration ([1]; 1 min, 1 h before induction): 90.2 ± 4.02% | Rate of breathing ([1]; 1 min, 1 h before induction): 120.6 ± 4.98% | Volume of breathing ([1]; 1 min, 1 h before induction): 123.4 ± 6.52% | Expiration/inspiration ([1]; 3 min, 1 h before induction): 93.9 ± 5.09% | Rate of breathing ([1]; 3 min, 1 h before induction): 98.5 ± 6.55% | Volume of breathing ([1]; 3 min, 1 h before induction): 92.6 ± 8.29% | Expiration/inspiration ([1]; 6 min, 1 h before induction): 94.3 ± 5.34% | Rate of breathing ([1]; 6 min, 1 h before induction): 89.5 ± 3.36% | Volume of breathing ([1]; 6 min, 1 h before induction): 96.7 ± 3.97% | Expiration/inspiration ([1]; 18 min, 1 h before induction): 96.6 ± 2.39% | Rate of breathing ([1]; 18 min, 1 h before induction): 91.3 ± 1.57% | Volume of breathing ([1]; 18 min, 1 h before induction): 90.6 ± 1.52% | Expiration/inspiration ([1]; 30 min, 1 h before induction): 94.8 ± 4.76% | Rate of breathing ([1]; 30 min, 1 h before induction): 93.3 ± 2.80% | Volume of breathing ([1]; 30 min, 1 h before induction): 91.4 ± 6.20% | Expiration/inspiration ([1]; 60 min, 1 h before induction): 93.9 ± 3.98% | Rate of breathing ([1]; 60 min, 1 h before induction): 86.9 ± 6.14% | Volume of breathing ([1]; 60 min, 1 h before induction): 90.9 ± 4.47% | Expiration/inspiration ([1]; 90 min, 1 h before induction): 104.3 ± 6.02% | Rate of breathing ([1]; 90 min, 1 h before induction): 84.6 ± 6.03% | Volume of breathing ([1]; 90 min, 1 h before induction): 91.0 ± 3.34% | Expiration/inspiration ([1]; 130 min, 1 h before induction): 107.0 ± 3.44% | Rate of breathing ([1]; 130 min, 1 h before induction): 87.3 ± 4.44% | Volume of breathing ([1]; 130 min, 1 h before induction): 94.9 ± 4.71% | Expiration/inspiration ([1]; 180 min, 1 h before induction): 109.3 ± 6.26% | Rate of breathing ([1]; 180 min, 1 h before induction): 87.5 ± 6.43% | Volume of breathing ([1]; 180 min, 1 h before induction): 93.8 ± 6.49% | Expiration/inspiration ([1]; before test): 100.0 ± 0.00% | Rate of breathing ([1]; before test): 100.0 ± 0.00% | Volume of breathing ([1]; before test): 100.0 ± 0.00% | inhibition of homo PCA reaction ([2]; 200 mg/Kg peroral): about 40% | Histamine release rate [3]: 50.8% | Net release rate [3]: 36.9% | inhibition at 10 µM ([3]; Rattus norvegicus): 0%

CC(CN1CCCCC1)C(=O)c1ccc2ccccc2c1 (stereo not drawn) [Example 2, 2-methyl-3-piperidino-β-propionaphthone hydrochloride]
Expiration/inspiration ([1]; 1 min, 1 h before induction): 78.4 ± 9.00% | Rate of breathing ([1]; 1 min, 1 h before induction): 120.8 ± 3.19% | Volume of breathing ([1]; 1 min, 1 h before induction): 108.2 ± 1.78% | Expiration/inspiration ([1]; 3 min, 1 h before induction): 108.7 ± 11.36% | Rate of breathing ([1]; 3 min, 1 h before induction): 90.3 ± 3.36% | Volume of breathing ([1]; 3 min, 1 h before induction): 86.7 ± 4.14% | Expiration/inspiration ([1]; 6 min, 1 h before induction): 99.8 ± 4.30% | Rate of breathing ([1]; 6 min, 1 h before induction): 92.2 ± 5.69% | Volume of breathing ([1]; 6 min, 1 h before induction): 90.3 ± 8.26% | Expiration/inspiration ([1]; 18 min, 1 h before induction): 106.5 ± 5.25% | Rate of breathing ([1]; 18 min, 1 h before induction): 91.6 ± 5.71% | Volume of breathing ([1]; 18 min, 1 h before induction): 86.0 ± 8.49% | Expiration/inspiration ([1]; 30 min, 1 h before induction): 100.3 ± 3.41% | Rate of breathing ([1]; 30 min, 1 h before induction): 96.4 ± 4.09% | Volume of breathing ([1]; 30 min, 1 h before induction): 93.7 ± 3.75% | Expiration/inspiration ([1]; 60 min, 1 h before induction): 97.0 ± 3.47% | Rate of breathing ([1]; 60 min, 1 h before induction): 96.2 ± 3.62% | Volume of breathing ([1]; 60 min, 1 h before induction): 96.6 ± 4.92% | Expiration/inspiration ([1]; 90 min, 1 h before induction): 96.5 ± 3.18% | Rate of breathing ([1]; 90 min, 1 h before induction): 94.0 ± 5.23% | Volume of breathing ([1]; 90 min, 1 h before induction): 97.6 ± 7.12% | Expiration/inspiration ([1]; 130 min, 1 h before induction): 106.4 ± 4.19% | Rate of breathing ([1]; 130 min, 1 h before induction): 94.3 ± 6.97% | Volume of breathing ([1]; 130 min, 1 h before induction): 92.1 ± 9.25% | Expiration/inspiration ([1]; 180 min, 1 h before induction): 108.7 ± 6.81% | Rate of breathing ([1]; 180 min, 1 h before induction): 98.2 ± 5.42% | Volume of breathing ([1]; 180 min, 1 h before induction): 97.8 ± 7.28% | Expiration/inspiration ([1]; before test): 100.0 ± 0.00% | Rate of breathing ([1]; before test): 100.0 ± 0.00% | Volume of breathing ([1]; before test): 100.0 ± 0.00% | ileum contraction inhibiting rate ([4]; 10^-4 g/ml): 76.0 ± 7.23% | ileum contraction inhibiting rate ([4]; 10^-5 g/ml): 53.7 ± 8.68% | ileum contraction inhibiting rate ([4]; 10^-6 g/ml): 10.0 ± 8.08% | inhibitory effect on homo PCA reaction, dose dependence (in words) [2]: their effects depended on the dose | inhibition of homo PCA reaction ([2]; 5 mg/Kg intravenous): 62.1% | LD50 ([5]; ip, intraperitoneal): 120 mg/kg | LD50 ([5]; po, peroral): 370 mg/kg | Histamine release rate [3]: 38.6% | Released histamine, fluorescence intensity [3]: 184 | Residual histamine, fluorescence intensity [3]: 292 | Total histamine, fluorescence intensity [3]: 476 | Net release rate [3]: 24.7% | inhibition at 10 µM ([3]; Rattus norvegicus): 24.5% | inhibition at 100 µM ([3]; Rattus norvegicus, 0.1 mM, read-out: Inhibitory effect on histamine release): 60%

Cc1ccc(C(=O)C(C)CN2CCCCC2)cc1C.Cl (centres unmarked) [Example 5, 2,3',4'-trimethyl-3-piperidinopropiophenone hydrochloride]
Expiration/inspiration ([1]; 1 min, 1 h before induction): 77.6 ± 3.68% | Rate of breathing ([1]; 1 min, 1 h before induction): 122.0 ± 16.99% | Volume of breathing ([1]; 1 min, 1 h before induction): 100.5 ± 5.01% | Expiration/inspiration ([1]; 3 min, 1 h before induction): 92.3 ± 2.19% | Rate of breathing ([1]; 3 min, 1 h before induction): 93.7 ± 7.20% | Volume of breathing ([1]; 3 min, 1 h before induction): 86.9 ± 5.99% | Expiration/inspiration ([1]; 6 min, 1 h before induction): 98.7 ± 3.93% | Rate of breathing ([1]; 6 min, 1 h before induction): 93.7 ± 5.80% | Volume of breathing ([1]; 6 min, 1 h before induction): 86.4 ± 6.96% | Expiration/inspiration ([1]; 18 min, 1 h before induction): 97.7 ± 2.62% | Rate of breathing ([1]; 18 min, 1 h before induction): 99.9 ± 4.00% | Volume of breathing ([1]; 18 min, 1 h before induction): 86.3 ± 3.71% | Expiration/inspiration ([1]; 30 min, 1 h before induction): 103.2 ± 1.10% | Rate of breathing ([1]; 30 min, 1 h before induction): 92.5 ± 1.76% | Volume of breathing ([1]; 30 min, 1 h before induction): 86.6 ± 2.44% | Expiration/inspiration ([1]; 60 min, 1 h before induction): 94.3 ± 3.87% | Rate of breathing ([1]; 60 min, 1 h before induction): 97.0 ± 1.81% | Volume of breathing ([1]; 60 min, 1 h before induction): 93.5 ± 6.17% | Expiration/inspiration ([1]; 90 min, 1 h before induction): 96.7 ± 4.58% | Rate of breathing ([1]; 90 min, 1 h before induction): 90.7 ± 6.14% | Volume of breathing ([1]; 90 min, 1 h before induction): 93.5 ± 3.78% | Expiration/inspiration ([1]; 130 min, 1 h before induction): 106.2 ± 5.28% | Rate of breathing ([1]; 130 min, 1 h before induction): 92.9 ± 5.33% | Volume of breathing ([1]; 130 min, 1 h before induction): 87.4 ± 3.03% | Expiration/inspiration ([1]; 180 min, 1 h before induction): 100.1 ± 2.03% | Rate of breathing ([1]; 180 min, 1 h before induction): 97.5 ± 1.82% | Volume of breathing ([1]; 180 min, 1 h before induction): 95.1 ± 3.33% | Expiration/inspiration ([1]; before test): 100.0 ± 0.00% | Rate of breathing ([1]; before test): 100.0 ± 0.00% | Volume of breathing ([1]; before test): 100.0 ± 0.00% | ileum contraction inhibiting rate ([4]; 10^-4 g/ml): 100.0 ± 0% | ileum contraction inhibiting rate ([4]; 10^-5 g/ml): 67.7 ± 8.11% | ileum contraction inhibiting rate ([4]; 10^-6 g/ml): 12.3 ± 8.25% | inhibitory effect on homo PCA reaction, dose dependence (in words) [2]: their effects depended on the dose | inhibition of homo PCA reaction ([2]; 200 mg/Kg peroral): about 70% | LD50 ([5]; ip, intraperitoneal): 117 mg/kg | LD50 ([5]; po, peroral): 325 mg/kg | Histamine release rate [3]: 42.9% | Released histamine, fluorescence intensity [3]: 210 | Residual histamine, fluorescence intensity [3]: 280 | Total histamine, fluorescence intensity [3]: 490 | Net release rate [3]: 29.0% | inhibition at 10 µM ([3]; Rattus norvegicus): 11.3%
